Experimental findings from patent publication US20120071459A1, “BIS-PYRIDYLPYRIDONES AS MELANIN-CONCENTRATING HORMONE RECEPTOR 1 ANTAGONISTS” (GlaxoSmithKline LLC, priority 2009, published 2012) are described below.

The test has as its target T1, hMCHR1 (Homo sapiens, UniProt Q99705).
T1 construct: expressed in transfected cells; host or cells: HEK293
Nature of the test: MCHR1 pIC50 Determination FLIPR Assay. The test is classed as cell-based. The conditions noted are these: HEK293 cells stably transfected with hMCHR1; MCH challenge at 4xEC50; in at least one experimental run. The method, then: MCHR1 pIC50 Determination FLIPR™ Assay: HEK293 cells stably transfected with hMCHR1 were propagated as adherent cultures at 37° C. in a humidified incubator. Cells were split 1:8 at 90% confluency two times per week. New cell stocks were recovered from storage every two months. Cells were plated in black 384-well plates (Greiner) 24 hours prior to assay at 15,000 cells/well in 50 μL DMEM/F12, 10% FBS, 2 mM l-glutamine. Compounds to be profiled were prepared by making a stock solution at 3×10^−3M in 100% DMSO. The stock solutions were serially diluted 1:4 in 100% DMSO using JANUS (PerkinElmer) liquid handling instrument to allow for an 11 point curve in singlicate. At the time of the assay, the media was removed from the cell plate by aspiration, followed by the addition of 20 μL of loading buffer (Calcium 4 Kit, […]). Following 50 min incubation at 37° C., 10 μL of compound was added to the plates via the FLIPR™ instrument ([…]). The plates were incubated at room temperature for 15 minutes along with an MCH peptide agonist challenge plate. On the FLIPR™, a basal response was collected over 10 seconds followed by the addition of 10 μL of MCH challenge concentration at 4×EC50. Data was collected over 4 minutes and subjected to a nonlinear regression analysis curve fitting program to generate pIC50s.

Molecules are shown by their SMILES.

T1 sequence (Q99705 whole entry): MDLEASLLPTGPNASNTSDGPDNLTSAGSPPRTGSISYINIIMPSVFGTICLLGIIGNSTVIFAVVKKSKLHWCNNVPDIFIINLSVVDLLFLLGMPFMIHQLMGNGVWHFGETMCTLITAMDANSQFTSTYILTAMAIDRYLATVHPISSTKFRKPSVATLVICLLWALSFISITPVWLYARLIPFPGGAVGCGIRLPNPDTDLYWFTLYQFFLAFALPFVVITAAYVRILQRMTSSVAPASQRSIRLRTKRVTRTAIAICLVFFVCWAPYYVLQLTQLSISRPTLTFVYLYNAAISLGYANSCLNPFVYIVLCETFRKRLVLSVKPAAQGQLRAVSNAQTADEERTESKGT

Turning to `O=C1CC2(CCCN(c3ccc(-n4ccc(OCc5ccc(Cl)cn5)cc4=O)cn3)C2)C(=O)N1` (stereo not drawn) [Example 11], the IC50 (commonly the midpoint of a concentration-inhibition curve) was determined as 50 nM.
In turn, `O=C1N(c2ccc(-n3ccc(OCc4ccc(Cl)cn4)cc3=O)cn2)CC12CCNCC2` [Example 4, 4-{[(5-chloro-2-pyridinyl)methyl]oxy}-6′-(1-oxo-2,7-diazaspiro[3.5]nonan-2-yl)-2H-1,3′-bipyridin-2-one] had an IC50 of 49 nM.
Next, `O=c1cc(OCc2ccc(Cl)cn2)ccn1-c1ccc(N2CCC3(CC2)CNC3)nc1` [Example 12]: 54 nM.
